In ChEMBL document CHEMBL1150698, “Placidenes C-F, novel alpha-pyrone propionates from the Mediterranean sacoglossan Placida dendritica” (J Nat Prod, 2003):

What was measured:
[1] = system: Gambusia affinis; test: Toxicity in Gambusia affinis; type: organism-based; conditions: in vivo
[2] = Stability at pH 1 to 5; type: physicochemical; conditions: buffer

| Stability [2] | Compound | Activity [1] |
| --- | --- | --- |
| Stable | CC/C=C(C)\C=C(/C)c1oc(OC)c(C)c(=O)c1C [PLACIDENE A] | Non-toxic |
| Stable | CCC(C)/C=C/c1oc(=O)cc(OC)c1C (configuration not stated) [PLACIDENE C] | Non-toxic |
|  | CCCC(C)/C=C/c1oc(=O)cc(OC)c1C (configuration not stated) [PLACIDENE D] | Non-toxic |
|  | CCCC(C)c1oc(=O)cc(OC)c1C (configuration not stated) [PLACIDENE E] | Non-toxic |
|  | C/C=C(C)\C=C(/C)c1oc(=O)c(C)c(OC)c1C [PLACIDENE F] | Non-toxic |
